Reference: US7491707B1, “Synthetic lipid-a-analogs and uses thereof” (Biomira, Inc., priority 1999, dated 2009)
Entries after “also recorded” stand apart in the source; their conditions may differ.

Legend:
Interferon-gamma (IFN-γ) = Interferon-gamma (IFN-γ) production in cell culture supernatants by ELISA, lymphocytes of mice immunized with adjuvanted MUC1 liposomal vaccine; format: in vivo, C57-Black mice; conditions: for Interferon-gamma (IFN-γ, pg/ml): s.c. liposomal vaccine 40 μg BP1-148 + 20 μg Lipid-A analog per dose, nine days after injection; for interferon-gamma production: in words, liposomal vaccine formulations in mice, FIG. 31-FIG. 33
Procedure: (§1) Typically, the liposomal formulation was composed of 400 μg of MUC1-based lipopeptide BP1-148, H2N-[…](Pal)G-OH, 200 μg of Lipid-A analog, 6.94 mg of cholesterol, 1.46 mg of dimyristoyl phosphatidylglycerol ([…]) and 11.62 mg of dipalmitoyl phosphatidylcholine (DPPC) per 1 ml of saline (0.9% NaCl solution).
(§2) The liposomal constructs were formulated by first dissolving the phospholipids, cholesterol and Lipid A analog in tert-butanol at about 53° C. Lipopeptide and water (5%, v/v) were then added to the tert-butanol solution. The resulting clear 95% tert-butanol solution was injected into about 4 volumes of rapidly stirred water at about 50° C., using a glass syringe with an 18-gauge needle. The small unilamellar vesicles (SUV) formed in this process were cooled, sterilized by filtration through a 0.22 μm membrane filter, filled into vials and lyophilized. The dry powder was re-hydrated with sterile saline before injection, resulting in the formation of multilamellar large vesicles (MLV). The liposomes formed are used to immunize mice.
(§3) Groups of C57-Black mice were immunized subcutaneously with the liposomal vaccine containing 40 μg of MUC1-based lipopeptide BP1-148 (FIG. 34), which has the peptide sequence of H2N-[…](Pal) G-OH, and 20 μg of Lipid-A analog per dose. Nine days after vaccine injection mice were sacrificed and lymphocytes were taken from the draining lymph nodes (local response) or from the spleens (systemic response) to determine the immune response in each group. The lymphocytes taken from immunized mice were incubated in in vitro cultures in the presence of MUC1-based boosting antigen BP1-151, which has the peptide sequence H2N-[…]-OH.
Interferon-gamma (IFN-γ) levels were determined in the cell culture supernatants using enzyme-linked immunoabsorbent assay (ELISA). 96-Well plates were coated with 50 μl of catcher Mabs in 50 μl of R4.6AZ at 37° C. for 30 min. The plates were then washed and incubated with test samples for 45 min. After two washes the second biotinylated antibody, XMG1.2 was added. After washing, peroxidase-conjugated streptavidin was added and incubated again for 30 min. Finally, 100 μl of horseradish peroxidase (HRPO) substrate solution was added. The optical density was measured with a Thermomax ELISA reader at 405 nm wavelength in kinetic mode for 10 min. The interferon-gamma (IFN-γ) levels corresponding to various Lipid-A analogs are shown in Table 1-Table 3 and FIG. 31-FIG. 33.

[1] = Solubility of Lipid-A analogs for incorporation into liposomes; format: physicochemical; conditions: in words; given as cause of poor incorporation into liposomes
T-cell = T-cell proliferation (3H thymidine incorporation) of lymph node lymphocytes from mice immunized with MUC1-based liposomal vaccine adjuvanted with Lipid-A analog; format: in vivo, C57-Black mice; conditions: for T-cell-Proliferation (CPM): s.c. liposomal vaccine 40 μg BP1-148 + 20 μg Lipid-A analog per dose, nine days after injection, boosting antigen BP1-151; for T-cell blastogenesis: in words, liposomal vaccine formulations in mice, FIG. 31-FIG. 33
Procedure: as §1, §2, §3
T-cell proliferation was evaluated using a standard ^3H thymidine incorporation assay. Briefly, nylon wool passed inguinal lymph node lymphocytes from each mouse were added to a culture containing 106 native mitomycin C treated syngeneic splenocytes, which serves as antigen presenting cells (APCs). To each well 20 μg of MUC1-based boosting peptide BP1-151, H2N-[…]-OH (single letter amino acid code, Table 8), was added for positive control; and cultures containing no antigen or peptide BP1-72, which has the peptide sequence H2N-[…]-OH, were used as negative control. The culture was incubated for 72 h in a total volume of 250 μl well, followed by adding 1 μCi of ^3H-thymidine in a volume of 50 μl. The plates were incubated for an additional 18-20 h. Cells were harvested and [^3H]dTh incorporation was measured by liquid scintillation counter. T-cell proliferation results corresponding to various liposomal vaccines adjuvanted, with different Lipid-A analogs are summarized in Tables 1-Table 3 and FIG. 31-FIG. 33.

C57-Black mice = test: Lethal toxicity of Lipid-A analogs injected i.p. followed by Actinomycin D; format: in vivo; conditions: for No. Survived/No. Tested (+24 h): Actinomycin D +
Procedure: Synthetic Lipid-A analog 86 and the Natural Lipid-A (see Example 95 for more detail) were tested for their lethal toxicity. Test methods and results are summarized below (Table 4) • a) Preparation of Lipid-A analog solution: 1 mg of Lipid-A analog was dissolved in 1 ml of 20% DMSO and diluted with saline to obtain 50 μg, 10 μg and 2 μg doses in 0.5 ml. • b) Preparation of Actinomycin D: 5 mg of Actinomycin D was dissolved in 1 ml of ethanol and diluted with saline to obtain a dose at 550 μg/kg in 0.5 ml. • c) Procedure: Various doses of Lipid-A analogs or solvent as control were injected intraperitoneally (i.p.) into C57-Black mice. Twenty minutes later all groups of mice were injected with 500 μl of Actinomycin D. Mice were then observed for mortality or any other symptoms of toxicity.

[2] = tested on: immune response to MUC1-based lipopeptide BP1-148; test: Adjuvanticity of Lipid-A analogs in liposomal vaccine with MUC1 lipopeptide BP1-148 (T-cell blastogenesis and IFN-γ production); format: in vivo, mice; conditions: in words; for adjuvant activity compared to Natural Lipid-A (Lipid-A preparation of bacterial origin): liposomal formulations with BP1-148 in mice, FIGS. 31-33
Description: Liposome formulations have been used to evaluate the adjuvant properties of various synthetic Lipid-A structures and the immune responses to a synthetic lipopeptide antigen BP-148, H2N-[…](Pal)G-OH (FIG. 34), a modified 25-amino-acid sequence derived from tumor-associated MUC1 mucin. The commercially available Lipid-A product, which is currently under clinical evaluation as an adjuvant for vaccine programs, was used for comparison. The natural Lipid-A product, purchased from AVANTI, contained a mixture of Lipid-A analogs extracted from Salmonella bacterial cell wall and is designated as Natural Lipid-A in this invention.
Thus, the liposomal formulations containing the synthetic lipopeptide antigen, BP1-148, and Lipid-A analogs 33, 48, 54, 58, 70, 77, 86, 94, 102, 104 or Natural Lipid-A, were used to immunize mice to measure their immune response in terms of T-cell blastogenesis and interferon-gamma (IFN-γ) production. The compounds were tested in three groups at different time and their preliminary results are shown separately in FIGS. 31-33. As the variations are attributed to different factors such as animal groups and experimental factors, the data from different groups will not be compared.
as §3

Structure (SMILES)	Interferon-gamma (IFN-γ, pg/ml) (Interferon-gamma (IFN-γ); Table 1, first test group) [pg/mL]	interferon-gamma production (Interferon-gamma (IFN-γ))	solubility [1]	T-cell-Proliferation (CPM) (T-cell; Table 1, first test group)	T-cell blastogenesis (T-cell)	Interferon-gamma (IFN-γ, pg/ml) (Interferon-gamma (IFN-γ); Table 2, second test group) [pg/mL]	Interferon-gamma (IFN-γ, pg/ml) (Interferon-gamma (IFN-γ); Table 3, third test group) [pg/mL]	survival of the study (C57-Black mice; all three doses (50 μg, 10 μg, 2 μg) i.p., experiment terminated 4 days later)	No. Survived/No. Tested (+24 h) (C57-Black mice; dose 2/500 μg/μl i.p.)	No. Survived/No. Tested (+24 h) (C57-Black mice; dose 10/500 μg/μl i.p.)	No. Survived/No. Tested (+24 h) (C57-Black mice; dose 50/500 μg/μl i.p.)	toxicity compared to Natural Lipid-A product from Salmonella (C57-Black mice; in words, in vivo, C57-Black mice, Actinomycin D)	adjuvant activity compared to Natural Lipid-A (Lipid-A preparation of bacterial origin) [2]	activity compared to the other synthetic Lipid-A analogs ([2]; second group (FIG. 32))	T-cell-Proliferation (CPM) (T-cell; Table 2, second test group)	T-cell-Proliferation (CPM) (T-cell; Table 3, third test group)
CCCCCCCCCCCCCC(=O)N[C@@H](CC(=O)N[C@H]1[C@H](OC[C@H]2OC(O)[C@H](NC(=O)C[C@@H](CCCCCCCCCCC)OC(=O)CCCCCCCCCCCCC)[C@@H](O)[C@@H]2O)O[C@H](CO)[C@@H](OP(=O)(O)O)[C@@H]1OC(=O)C[C@@H](CCCCCCCCCCC)OC(=O)CCCCCCCCCCCCC)C(=O)NCCCCCCCCC (stereo partly drawn) [Compound 58, 2-Deoxy-6-O-{2-deoxy-2-[(3S)-3-tetradecanamido-4-nonylamino-4-oxo-butanamido]-4-O-phosphono-3-O-[(3R)-3-tetradecanoyloxytetradecanoyl]-β-D-glucopyranosyl}-2-[(3R)-3-tetradecanoyloxytetradecanamido]-α/β-D-glucopyranose]	0	inactive	poor solubility	686	inactive											
CCCCCCCCCCCCCC(=O)O[C@H](CCCCCCCCCCC)CC(=O)N[C@H]1[C@H](OC[C@H]2OC(O)[C@H](NC(=O)C[C@@H](CCCCCCCCCCC)OC(=O)CCCCCCCCCCCCC)[C@@H](OC(=O)C[C@H](O)CCCCCCCCCCC)[C@@H]2O)O[C@H](CO)[C@@H](OP(=O)(O)O)[C@@H]1OC(=O)C[C@@H](CCCCCCCCCCC)OC(=O)CCCCCCCCCCCCC (stereo partly drawn) [Compound 86, 2-Deoxy-6-O-{2-deoxy-4-O-phosphono-2-[(3R)-3-tetradecanoyloxytetradecanamido]-3-O-[(3R)-3-tetradecanoyloxytetradecanoyl]-β-D-glucopyranosyl}-3-O-[(3R)-3-hydroxytetradecanoyl]-2-[(3R)-3-tetradecanoyloxytetradecanamido]-α/β-D-glucopyranose]		high levels of interferon-gamma			significant T-cell blastogenesis	36461	17697	survived the study	3/3	3/3	3/3	much less toxic; also recorded: much lower	as effective	slightly more active	52382	15486
CCCCCCCCCCCCCCCC(=O)O[C@H](CCCCCCCCCCC)CC(=O)N[C@H]1C(O)O[C@H](CO[C@@H]2O[C@H](CO)[C@@H](OP(=O)(O)O)[C@H](OC(=O)C[C@@H](CCCCCCCCCCC)OC(=O)CCCCCCCCCCCCC)[C@H]2NC(=O)C[C@@H](CCCCCCCCCCC)OC(=O)CCCCCCCCCCC)[C@@H](O)[C@@H]1O (stereo partly drawn) [Compound 48, 2-Deoxy-6-O-{2-deoxy-2-[(3R)-3-dodecanoyloxytetradecanamido]-4-O-phosphono-3-O-[(3R)-3-tetradecanoyloxytetradecanoyl]-β-D-glucopyranosyl}-2-[(3R)-3-hexadecanoyloxytetradecanamido]-α/β-D-glucopyranose]	2430	high levels of interferon-gamma		14112	significant T-cell blastogenesis	18261							as effective		28149	
CCCCCCCCCCCCCC(=O)O[C@H](CCCCCCCCCCC)CC(=O)N[C@H]1[C@H](OC[C@H]2OC(O)[C@H](NC(=O)C[C@@H](CCCCCCCCCCC)OC(=O)CCCCCCCCCCCCC)[C@@H](OCCC)[C@@H]2O)O[C@H](CO)[C@@H](OP(=O)(O)O)[C@@H]1OC(=O)C[C@@H](CCCCCCCCCCC)OC(=O)CCCCCCCCCCCCC (stereo partly drawn) [Compound 70, 2-Deoxy-6-O-{2-deoxy-2-[(3R)-3-tetradecanoyloxytetradecanamido]-4-O-phosphono-3-O-[(3R)-3-tetradecanoyloxytetradecanoyl]-β-D-glucopyranosyl}-3-O-propyl-2-[(3R)-3-tetradecanoyloxytetradecanamido]-α/β-D-glucopyranose]		high levels of interferon-gamma			significant T-cell blastogenesis	17321							as effective		25034	
CCCCCCCCCCCCCC(=O)O[C@H](CCCCCCCCCCC)CC(=O)N[C@H]1[C@H](OC[C@H]2OC(O)[C@H](NC(=O)C[C@@H](CCCCCCCCCCC)OC(=O)CCCCCCCCCCCCC)[C@@H](O)[C@@H]2O)O[C@H](CO)[C@@H](OP(=O)(O)O)[C@@H]1OC(=O)C[C@@H](CCCCCCCCCCC)OC(=O)CCCCCCCCCCCCC (stereo partly drawn) [Compound 54, 2-Deoxy-6-O-{2-deoxy-4-O-phosphono-2-[(3R)-3-tetradecanoyloxytetradecanamido]-3-O-[(3R)-3-tetradecanoyloxytetradecanoyl]-β-D-glucopyranosyl}-2-[(3R)-3-tetradecanoyloxytetradecanamido]-α/β-D-glucopyranose]		high levels of interferon-gamma			significant T-cell blastogenesis	36166							as effective		32976	
